Patent US20210276971A1, “TRIAZAMACROCYCLE-DERIVED CHELATOR COMPOSITIONS FOR COORDINATION OF IMAGING AND THERAPY METAL IONS AND METHODS OF USING SAME” (The Research Foundation for The State University of New York, priority 2018, published 2021)

What was measured:
[1] = HPLC check of interconversion of metal-complex diastereomers; type: physicochemical; conditions: HPLC-separated peaks of Sc(III)/Lu(III) complexes, reinjected
Protocol: FIG. 13: Sc-Overlay and Lu-Overlay—A stock solution of PICAGA (2 mg/mL) in DI water was prepared. 1.1 equivalents of metal added to the ligand. ScCl3.6H2O or Lu(ClO4)3.6H2O. pH was adjusted to 6-7 with 5 M NaOH. Complex solutions were injected on HPLC. Each peak associated with the PICAGA (5.7 and 5.9 min) was collected and reinjected at 20 min.
A direct DO3A-monoamide DUPA conjugate analogue was also synthesized. The fully assembled conjugates DOTA-DUPA and picaga-DUPA were fully deprotected and characterized using ^1H-, ^13C-NMR and mass spectrometry. Following complete characterization, the non-radioactive scandium complexes were formed and characterized using HPLC-analysis. As the glutarate arm is introduced as the pure S-entantiomer, where the alpha carbon retains the chiral alpha carbon and subsequently introduces chirality to the ligand.

[2] = Plasma stability of ^44Sc complexes (37° C.); type: in vitro ADME, Rat; conditions: for % complex stability: Rat Plasma, 37°
[3] = EDTA challenge of ^44Sc complexes (10× excess EDTA, 37° C.); type: physicochemical; conditions: for % complex stability: EDTA, 10× eq, 37° C.; for kinetic inertness (transchelation): presence of 10×EDTA
Protocol: Challenge experiments. To measure relative complex stability, 10 uL of ligand solution at 100000 ng/mL was added to 100 uL EDTA to produce 10× excess EDTA. Mixtures were incubated at 37° C. for 1 h. To evaluate plasma stability, 10 uL of ligand solution at 100000 ng/mL added to 50 uL mouse plasma. Incubated at 37° C. for 1 h. Tubes were intermittently vortexed and 2 uL was removed at the designated timepoints and spotted onto TLC plates.

interconversion of complex diastereomers [1]	interconversion of complex diastereomers ([1]; listed as picaga-DUPA)	% complex stability ([2]; t = 10 min) [%]	% complex stability ([2]; t = 30 min) [%]	% complex stability ([2]; t = 60 min) [%]	% complex stability ([3]; t = 0) [%]	% complex stability ([3]; t = 10 min) [%]	% complex stability ([3]; t = 30 min) [%]	% complex stability ([3]; t = 60 min) [%]	kinetic inertness (transchelation) ([2]; rat plasma)	kinetic inertness (transchelation) [3]	SMILES
limited interconversion	do not interconvert even after 12 hours										O=C(O)CC[C@H](NC(=O)N[C@@H](CCC(=O)NCCCCCNC(=O)CCC(C(=O)O)N1CCN(CC(=O)O)CCN(Cc2cccc(C(=O)O)n2)CC1)C(=O)O)C(=O)O (stereo in doubt) [PICAGA, 2-{3-[(R)-1-Carboxy-4-[5-(4-carboxy-4-{7-(carboxymethyl)-4-[(6-carboxy-2-pyridyl)methyl]-1,4,7-triazonan-1-yl}butyrylamino)pentylamino]-4-oxobutyl]ureido}glutaric acid]
		74.8 ± 1.8	74.4 ± 0.7	75.5 ± 0.9	9.41	74.4 ± 0.4	73.3 ± 0.5	74.7 ± 0.4			O=C(O)CN1CCN(CC(=O)O)CCN(CC(=O)O)CCN(CC(=O)O)CC1 [DOTA, reference compound]
		90.1 ± 0.8	91.0 ± 0.2	91.6 ± 0.3	91.4	91.5 ± 0.8	91.4 ± 0.8	90.5 ± 0.6	no detectable transchelation	no detectable transchelation	O=C(O)CN1CCN(CC(=O)O)CCN(Cc2cccc(C(=O)O)n2)CC1 [MONOPIC, 6-{[4,7-Bis(carboxymethyl)-1,4,7-triazonan-1-yl]methyl}-2-pyridinecarboxylic acid]
		98.9 ± 0.3	98.3 ± 0.1	97.4 ± 0.4	90.2	77.4 ± 5.2	67.8 ± 0.9	51.5 ± 0.4		diminished complex inertness	O=C(O)CN1CCN(Cc2cccc(C(=O)O)n2)CCN(Cc2cccc(C(=O)O)n2)CC1 [NO1A2PIC]
